Measured values from ChEMBL document CHEMBL6083234, “Discovery of novel 1,4-dicarbonylthiosemicarbazides as DNA gyrase inhibitors for the treatment of MRSA infection” (Eur J Med Chem, 2024).
≈ marks a conversion by molar mass, not a printed value. Calls of active or inactive are those of the source. The calls are words filed in the database; no cut-off is given here.

Columns and labels:
Staphylococcus aureus [1] = assay: Antibacterial activity against Staphylococcus aureus ATCC 29213 assessed as inhibition of bacterial growth incubated for 18 to 24 hrs by broth microdilution method; assay type: functional; conditions: time 18-24 hrs
[2] = Cytotoxicity against human HepG2 cells assessed as reduction in cell viability incubated for 48 hrs by CCK8 assay; assay type: toxicity, cell-based
[3] = Cytotoxicity against HUVEC cells assessed as reduction in cell viability incubated for 48 hrs by CCK8 assay; assay type: toxicity, cell-based; conditions: human
[4] = Selectivity index, ratio of CC50 for cytotoxicity against human HepG2 cells to MIC for antibacterial activity against Staphylococcus aureus ATCC 29213; assay type: toxicity, cell-based; conditions: read-out: Selectivity Index
[5] = Selectivity index, ratio of CC50 for cytotoxicity against HUVEC cells to MIC for antibacterial activity against Staphylococcus aureus ATCC 29213; assay type: toxicity, cell-based; conditions: human, read-out: Selectivity Index
DNA gyrase = DNA gyrase (Staphylococcus aureus, UniProt P0A0K8+P20831); assay: Inhibition of Staphylococcus aureus DNA gyrase ATP hydrolysis activity using pBR322 DNA as substrate incubated for 30 mins in presence of ATP by ADP-Glo reagent based assay; assay type: protein-complex assay
Staphylococcus aureus [6] = assay: Antibacterial activity against methicillin-resistant Staphylococcus aureus clinical isolate 16-1 infected in kunming mouse model assessed as survival rate at 20 mg/kg, iv pre-infected with bacteria for 10 mins followed by compound administration and measured for 7 days (reference value: 0 %); assay type: functional; conditions: 168 h, time 7 day
Staphylococcus aureus [7] = assay: Bacteriostatic activity against Staphylococcus aureus ATCC 29213 assessed as inhibition of bacterial growth at 1 times of MIC measured after 24 hrs by time-kill assay; assay type: functional, organism-based
Staphylococcus aureus [8] = assay: Bacteriostatic activity against Staphylococcus aureus ATCC 29213 assessed as inhibition of bacterial growth at 4 times of MIC measured after 24 hrs by time-kill assay; assay type: functional, organism-based
Staphylococcus aureus [9] = assay: Bactericidal activity against Staphylococcus aureus ATCC 29213 at 16 times of MIC measured after 24 hrs by time-kill assay; assay type: functional, organism-based
Staphylococcus aureus [10] = assay: Bacteriostatic activity against Staphylococcus aureus ATCC 29213 assessed as log reduction in bacterial colony counts at 4 times of MIC measured after 24 hrs by time-kill assay; assay type: functional
Staphylococcus aureus [11] = assay: Bactericidal activity against Staphylococcus aureus ATCC 29213 assessed as log reduction in bacterial colony counts at 16 times of MIC measured after 24 hrs by time-kill assay; assay type: functional
Staphylococcus aureus [12] = assay: Antibacterial activity against methicillin-resistant Staphylococcus aureus (15 strains) assessed as inhibition of bacterial growth incubated for 18 to 24 hrs by broth microdilution method; assay type: functional; conditions: time 18-24 hrs
Staphylococcus aureus [13] = assay: Antibacterial activity against vancomycin intermediate and methicillin-resistant Staphylococcus aureus (2 strains) assessed as inhibition of bacterial growth incubated for 18 to 24 hrs by broth microdilution method; assay type: functional; conditions: time 18-24 hrs
Staphylococcus aureus [14] = assay: Antibacterial activity against methicillin-sensitive Staphylococcus aureus (8 strains) assessed as inhibition of bacterial growth incubated for 18 to 24 hrs by broth microdilution method; assay type: functional; conditions: time 18-24 hrs
[15] = tested on: Staphylococcus epidermidis; assay: Antibacterial activity against methicillin-resistant Staphylococcus epidermidis (11 strains) assessed as inhibition of bacterial growth incubated for 18 to 24 hrs by broth microdilution method; assay type: functional; conditions: time 18-24 hrs
[16] = tested on: Staphylococcus epidermidis; assay: Antibacterial activity against methicillin-sensitive Staphylococcus epidermidis (8 strains) assessed as inhibition of bacterial growth incubated for 18 to 24 hrs by broth microdilution method; assay type: functional; conditions: time 18-24 hrs
Enterococcus faecalis = assay: Antibacterial activity against Enterococcus faecalis (8 strains) assessed as inhibition of bacterial growth incubated for 18 to 24 hrs by broth microdilution method; assay type: functional; conditions: time 18-24 hrs
Enterococcus faecium = assay: Antibacterial activity against Enterococcus faecium (8 strains) assessed as inhibition of bacterial growth incubated for 18 to 24 hrs by broth microdilution method; assay type: functional; conditions: time 18-24 hrs
[17] = Metabolic stability in mouse liver microsomes assessed as half-life at 1 uM measured upto 60 mins in presence of NADPH by LC-MS/MS analysis; assay type: ADME, Microsome
[18] = Stability in mouse plasma assessed as half-life at 1 uM measured upto 120 mins by LC-MS/MS analysis; assay type: ADME, cell-free
Staphylococcus aureus [19] = assay: Antibacterial activity against methicillin-resistant Staphylococcus aureus clinical isolate 16-1 infected in kunming mouse model assessed as survival rate at 14 mg/kg, iv pre-infected with bacteria for 10 mins followed by compound administration and measured for 7 days (reference value: 0 %); assay type: functional; conditions: 168 h, time 7 day
Staphylococcus aureus [20] = assay: Antibacterial activity against methicillin-resistant Staphylococcus aureus clinical isolate 16-1 infected in kunming mouse model assessed as survival rate at 10 mg/kg, iv pre-infected with bacteria for 10 mins followed by compound administration and measured for 7 days (reference value: 0 %); assay type: functional; conditions: 168 h, time 7 day
Staphylococcus aureus [21] = assay: Antibacterial activity against methicillin-resistant Staphylococcus aureus clinical isolate 16-1 infected in kunming mouse model assessed as survival rate at 7 mg/kg, iv pre-infected with bacteria for 10 mins followed by compound administration and measured for 7 days (reference value: 0 %); assay type: functional; conditions: 168 h, time 7 day
[22] = target: DNA gyrase (Staphylococcus aureus) (UniProt P0A0K8+P20831); assay: Inhibition of Staphylococcus aureus DNA gyrase supercoiling using […] pBR322 DNA as substrate assessed as reduction in supercoiled DNA incubated for 30 mins in presence of ATP by agarose gel electrophoresis; assay type: protein-complex assay; conditions: dose 0.01-100 µM
DNA gyrase (Staphylococcus aureus), sequence (P0A0K8 2-644 limits assumed): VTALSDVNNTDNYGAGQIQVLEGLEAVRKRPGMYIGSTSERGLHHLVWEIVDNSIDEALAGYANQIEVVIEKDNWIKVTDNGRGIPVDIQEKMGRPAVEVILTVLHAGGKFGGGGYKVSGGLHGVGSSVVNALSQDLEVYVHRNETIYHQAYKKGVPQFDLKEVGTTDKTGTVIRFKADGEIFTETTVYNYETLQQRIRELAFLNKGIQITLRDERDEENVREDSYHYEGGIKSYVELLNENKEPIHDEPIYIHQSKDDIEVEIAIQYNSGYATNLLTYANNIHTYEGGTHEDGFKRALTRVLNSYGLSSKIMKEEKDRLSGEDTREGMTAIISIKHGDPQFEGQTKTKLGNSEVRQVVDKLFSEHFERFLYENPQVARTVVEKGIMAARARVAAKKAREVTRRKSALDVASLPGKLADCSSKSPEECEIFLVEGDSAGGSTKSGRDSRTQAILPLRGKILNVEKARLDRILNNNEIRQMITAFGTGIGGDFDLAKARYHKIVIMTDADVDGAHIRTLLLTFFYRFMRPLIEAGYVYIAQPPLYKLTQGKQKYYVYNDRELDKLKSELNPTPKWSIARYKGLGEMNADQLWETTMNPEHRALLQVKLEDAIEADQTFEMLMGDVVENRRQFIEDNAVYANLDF
DNA gyrase (Staphylococcus aureus), sequence (P20831 whole entry partner): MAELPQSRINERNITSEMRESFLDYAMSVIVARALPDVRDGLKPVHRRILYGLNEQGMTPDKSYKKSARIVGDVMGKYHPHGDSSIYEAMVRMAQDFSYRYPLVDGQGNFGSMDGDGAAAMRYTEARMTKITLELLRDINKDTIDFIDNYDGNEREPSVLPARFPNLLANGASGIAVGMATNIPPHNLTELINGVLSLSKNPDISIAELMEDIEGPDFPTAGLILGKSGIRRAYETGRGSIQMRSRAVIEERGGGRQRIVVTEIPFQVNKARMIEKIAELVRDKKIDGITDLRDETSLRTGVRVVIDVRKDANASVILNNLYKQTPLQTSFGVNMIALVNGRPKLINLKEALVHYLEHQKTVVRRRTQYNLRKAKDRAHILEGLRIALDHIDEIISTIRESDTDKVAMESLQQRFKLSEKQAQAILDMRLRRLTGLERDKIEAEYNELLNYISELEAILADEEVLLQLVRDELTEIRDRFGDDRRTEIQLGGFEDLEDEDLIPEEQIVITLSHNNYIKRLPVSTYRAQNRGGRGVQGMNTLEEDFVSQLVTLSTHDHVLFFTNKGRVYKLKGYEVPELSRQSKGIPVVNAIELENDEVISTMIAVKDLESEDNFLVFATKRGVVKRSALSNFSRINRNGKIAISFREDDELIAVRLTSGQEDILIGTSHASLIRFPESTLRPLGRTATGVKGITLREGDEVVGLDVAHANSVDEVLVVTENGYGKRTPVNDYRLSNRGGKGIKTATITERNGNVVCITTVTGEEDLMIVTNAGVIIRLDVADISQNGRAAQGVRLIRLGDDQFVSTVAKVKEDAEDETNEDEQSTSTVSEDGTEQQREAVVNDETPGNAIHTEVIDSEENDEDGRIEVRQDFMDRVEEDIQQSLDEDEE

DNA gyrase, sequence (P0A0K8 whole entry): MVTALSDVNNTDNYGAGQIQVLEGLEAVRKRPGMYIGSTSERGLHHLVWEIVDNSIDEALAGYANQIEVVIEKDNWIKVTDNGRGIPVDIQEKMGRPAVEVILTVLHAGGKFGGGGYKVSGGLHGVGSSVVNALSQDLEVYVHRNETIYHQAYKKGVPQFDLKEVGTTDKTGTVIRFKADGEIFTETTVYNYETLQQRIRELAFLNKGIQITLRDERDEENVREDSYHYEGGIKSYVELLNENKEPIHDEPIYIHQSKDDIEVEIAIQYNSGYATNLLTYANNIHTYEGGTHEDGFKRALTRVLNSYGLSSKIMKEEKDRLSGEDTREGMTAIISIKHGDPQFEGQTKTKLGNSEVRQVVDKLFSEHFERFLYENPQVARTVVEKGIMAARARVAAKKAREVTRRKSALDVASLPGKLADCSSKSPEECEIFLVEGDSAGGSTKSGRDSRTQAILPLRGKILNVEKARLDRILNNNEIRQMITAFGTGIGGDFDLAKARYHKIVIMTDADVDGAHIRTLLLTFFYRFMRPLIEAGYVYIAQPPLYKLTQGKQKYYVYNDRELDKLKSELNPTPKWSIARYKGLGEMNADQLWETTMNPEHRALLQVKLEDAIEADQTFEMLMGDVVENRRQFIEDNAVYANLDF
DNA gyrase, sequence (P20831 whole entry): as the sequence (P20831 whole entry partner) above

CCCCCCOc1ccc(C(=O)NNC(=O)NC(C)=O)cc1
MIC (Staphylococcus aureus [1]): 100 µg/mL

CC(=O)NC(=S)NNC(=O)c1ccc(Oc2ccccc2)cc1
MIC (Staphylococcus aureus [1]): 3.12 µg/mL

CCCCCOc1cccc(C(=O)NNC(=S)NC(C)=O)c1
MIC (Staphylococcus aureus [1]): > 100 µg/mL

CCCCCOc1ccc(C(=O)NNC(=S)NC(=O)CCC)cc1
MIC (Staphylococcus aureus [1]): 12.5 µg/mL

CCC1CCC(c2ccc(C(=O)NNC(=S)NC(C)=O)cc2)CC1 (stereo not given)
MIC (Staphylococcus aureus [1]): 0.58 µM | CC50 at 48 h [2]: 26 nM | CC50 at 48 h [3]: 67 nM | selectivity ratio [4]: 0.05 | selectivity ratio [5]: 0.12 | IC50 (DNA gyrase): 230 nM

CCC(=O)NC(=S)NNC(=O)c1ccccc1
MIC (Staphylococcus aureus [1]): 50 µg/mL

CCCCCOc1ccc(C(=O)NNC(=S)NC(C)=O)cc1OCCCCC
MIC (Staphylococcus aureus [1]): 6.25 µg/mL

Cc1ccc(C(=O)NNC(=S)NC(=O)CC(C)C)cc1
MIC (Staphylococcus aureus [1]): 12.5 µg/mL

CCCCCOc1ccc(C(=O)NNC(=S)NC(C)=O)c(C)c1
MIC (Staphylococcus aureus [1]): 3.12 µg/mL

CCCCCOc1ccc(C(=O)NNC(=S)NC(=O)CCC(=O)O)cc1
MIC (Staphylococcus aureus [1]): 50 µg/mL

CC(=O)NC(=S)NNC(=O)c1ccc2ccccc2c1
MIC (Staphylococcus aureus [1]): 6.25 µg/mL

CC(=O)NC(=S)NNC(=O)c1ccc(OCCCC(C)C)cc1
MIC (Staphylococcus aureus [1]): 3.12 µg/mL

CCCCCCOc1ccc(-c2nnc(NC(C)=O)o2)cc1
MIC (Staphylococcus aureus [1]): > 100 µg/mL

CCCCCCOc1ccc(C(=O)NN(C)C(=S)NC(C)=O)cc1
MIC (Staphylococcus aureus [1]): > 100 µg/mL

CCCCCOc1ccc(C(=O)NNC(=S)NC(=O)c2ccc(C(=O)O)cc2)cc1
MIC (Staphylococcus aureus [1]): > 100 µg/mL

CC(=O)NC(=S)NNC(=O)c1ccc(O)c(O)c1
MIC (Staphylococcus aureus [1]): 100 µg/mL

CCCCCOc1ccc(C(=O)NNC(=S)NC(C)=O)c(OCCCCC)c1
MIC (Staphylococcus aureus [1]): > 100 µg/mL

CC(=O)NC(=S)NNC(=O)c1ccccc1
MIC (Staphylococcus aureus [1]): 50 µg/mL

CCCCCCOc1ccc(-c2nnc(NC(C)=O)s2)cc1
MIC (Staphylococcus aureus [1]): > 100 µg/mL

CCCCCCOc1ccc(C(=O)N(C)NC(=S)NC(C)=O)cc1
MIC (Staphylococcus aureus [1]): > 100 µg/mL

CC(=O)NC(=S)NNC(=O)c1ccccc1O
MIC (Staphylococcus aureus [1]): 50 µg/mL

CCCCCOc1ccc(C(=O)NNC(=S)NC(=O)C2CCCC2)cc1
MIC (Staphylococcus aureus [1]): 50 µg/mL

CCCCCOc1ccc(C(=O)NNC(=S)NS(C)(=O)=O)cc1
MIC (Staphylococcus aureus [1]): > 100 µg/mL

CCC(=O)NC(=S)NNC(=O)c1ccccc1O
MIC (Staphylococcus aureus [1]): 50 µg/mL

CCCCCOc1ccc(C(=O)NNC(=S)NC(=O)C(C)C)cc1
MIC (Staphylococcus aureus [1]): 12.5 µg/mL

CCCCCOc1ccc(C(=O)NNC(=S)NC(=O)CC)cc1
MIC (Staphylococcus aureus [1]): 1.56 µg/mL

CCCCCOc1ccc(CCC(=O)NNC(=S)NC(C)=O)cc1
MIC (Staphylococcus aureus [1]): > 100 µg/mL

CCCCCOc1ccc(C(=O)NNC(=S)NC(=O)CCC(=O)OC)cc1
MIC (Staphylococcus aureus [1]): 12.5 µg/mL

CC(=O)NC(=S)NNC(=O)c1ccc(OC2CCCCC2)cc1
MIC (Staphylococcus aureus [1]): 1.56 µg/mL

CCC(=O)NC(=S)NNC(=O)c1ccc(OC)cc1
MIC (Staphylococcus aureus [1]): 25 µg/mL

CCCCCCCCCCCOc1ccc(C(=O)NNC(=S)NC(C)=O)cc1
MIC (Staphylococcus aureus [1]): 100 µg/mL

CC(=O)NC(=S)NNC(=O)c1ccc([N+](=O)[O-])cc1
MIC (Staphylococcus aureus [1]): > 100 µg/mL

CCCCCOc1ccc(C(=O)NNC(=S)NC(C)=O)cc1O
MIC (Staphylococcus aureus [1]): 25 µg/mL

CC(=O)NC(=S)NNC(=O)c1ccc(C2CCCCC2)cc1
MIC (Staphylococcus aureus [1]): 1.22 µM | CC50 at 48 h [2]: 120 nM | CC50 at 48 h [3]: 790 nM | selectivity ratio [4]: 0.1 | selectivity ratio [5]: 0.65 | IC50 (DNA gyrase): 1890 nM

COCCCOc1ccc(C(=O)NNC(=S)NC(C)=O)cc1
MIC (Staphylococcus aureus [1]): > 100 µg/mL

CCCCCCOc1ccc(C(=O)NNC(=S)NCC)cc1
MIC (Staphylococcus aureus [1]): > 100 µg/mL

CCCCCOc1ccc(CC(=O)NNC(=S)NC(C)=O)cc1
MIC (Staphylococcus aureus [1]): 25 µg/mL

CC(=O)NC(=S)NNC(=O)c1ccc(N2CCOCC2)cc1
MIC (Staphylococcus aureus [1]): 100 µg/mL

CCCOc1ccc(C(=O)NNC(=S)NC(C)=O)cc1
MIC (Staphylococcus aureus [1]): 6.25 µg/mL

CC(=O)NC(=S)NNC(=O)c1cccc(-c2ccccc2)c1
MIC (Staphylococcus aureus [1]): 3.12 µg/mL

CCCCCOc1ccc(C(=O)NNC(=S)NC(C)=O)cc1
survival at 20 mg/kg (Staphylococcus aureus [6]): 50% | MIC (Staphylococcus aureus [1]): 2.41 µM | CC50 at 48 h [2]: 2370 nM | CC50 at 48 h [3]: 6460 nM | selectivity ratio [4]: 0.98 | selectivity ratio [5]: 2.68 | Activity (Staphylococcus aureus [7]): Active | Activity (Staphylococcus aureus [8]): Active | Activity (Staphylococcus aureus [9]): Active | log(activity) (Staphylococcus aureus [10]): 2.51 | log(activity) (Staphylococcus aureus [11]): 6.41 | MIC (Staphylococcus aureus [12]): 2 µg/mL (≈ 6.18 µM) | MIC (Staphylococcus aureus [13]): 2 µg/mL (≈ 6.18 µM) | MIC (Staphylococcus aureus [14]): 1 µg/mL (≈ 3.09 µM) | MIC [15]: 0.5 µg/mL (≈ 1.55 µM) | MIC [16]: 1 µg/mL (≈ 3.09 µM) | MIC (Enterococcus faecalis): 4 µg/mL (≈ 12.4 µM) | MIC (Enterococcus faecium): 2 µg/mL (≈ 6.18 µM) | half-life at 1 µM [17]: 28.3 min | half-life at 1 µM [18]: > 120 min | survival at 14 mg/kg (Staphylococcus aureus [19]): 20% | survival at 10 mg/kg (Staphylococcus aureus [20]): 20% | survival at 7 mg/kg (Staphylococcus aureus [21]): 10% | IC50 (DNA gyrase): 1810 nM | inhibition [22]: Dose-dependent-effect

CCCCCOc1ccc(C(=O)NNC(=S)NC(=O)Cc2ccccc2)cc1
MIC (Staphylococcus aureus [1]): > 100 µg/mL

CC(=O)NC(=S)NNC(=O)c1ccc(-c2ccccc2)cc1
MIC (Staphylococcus aureus [1]): 1.56 µg/mL

CCCCCOc1ccc(C(=O)NNC(=S)NC(=O)c2cccs2)cc1
MIC (Staphylococcus aureus [1]): 3.12 µg/mL

CC(=O)NC(=S)NNC(=O)c1ccc(C2CC2)cc1
MIC (Staphylococcus aureus [1]): 3.12 µg/mL

CCCCOc1ccc(C(=O)NNC(=S)NC(C)=O)cc1
MIC (Staphylococcus aureus [1]): 1.56 µg/mL

CCCCCCOc1ccc(C(=O)NNC(=S)NC(C)=O)cc1
MIC (Staphylococcus aureus [1]): 1.56 µg/mL | IC50 (DNA gyrase): 1010 nM

CCCCCCOc1ccc(C(=O)NNC(N)=S)cc1
MIC (Staphylococcus aureus [1]): > 100 µg/mL

CCCCCOc1ccc(C(=O)NNC(=S)NC(C)=O)nc1
MIC (Staphylococcus aureus [1]): 25 µg/mL

CCCCCOc1ccc(C(=O)NNC(=S)NC(=O)C2CC2)cc1
MIC (Staphylococcus aureus [1]): 6.25 µg/mL

CC(=O)O[C@H]1C(=O)[C@@]2(C)[C@H]([C@H](OC(=O)c3ccccc3)[C@]3(O)C[C@H](OC(=O)[C@H](O)[C@@H](NC(=O)c4ccccc4)c4ccccc4)C(C)=C1C3(C)C)[C@]1(OC(C)=O)CO[C@@H]1C[C@@H]2O [PACLITAXEL]
CC50 at 48 h [2]: 10 nM | CC50 at 48 h [3]: 16 nM

CCCCCOc1ccc(C(=O)NC(=S)NNC(C)=O)cc1
MIC (Staphylococcus aureus [1]): 3.12 µg/mL

CCCCCCOc1ccc(CNNC(=S)NCC)cc1
MIC (Staphylococcus aureus [1]): > 100 µg/mL

CCCCCOc1ccc(C(=O)NNC(=S)NC(=O)c2ccc(C(=O)OC)cc2)cc1
MIC (Staphylococcus aureus [1]): > 100 µg/mL
